Measurements as given in PMC6838683, “Discovery of Human Signaling Systems: Pairing Peptides to G Protein-Coupled Receptors” (Cell, 2019).
Where two headings read alike, the source gives them in different places. Residues, ends and D or L forms follow the SMILES beside them.

What was measured:
HA-OGR1 (GPR68) = biological target: T1, HA-OGR1 (GPR68) (Homo sapiens, UniProt Q15743); assay: Ca2+ mobilization assay (Fluo-4); assay type: cell-based; settings: mean
T1 construct: HA; expressed in transfected cells
T1 sequence (Q15743 whole entry): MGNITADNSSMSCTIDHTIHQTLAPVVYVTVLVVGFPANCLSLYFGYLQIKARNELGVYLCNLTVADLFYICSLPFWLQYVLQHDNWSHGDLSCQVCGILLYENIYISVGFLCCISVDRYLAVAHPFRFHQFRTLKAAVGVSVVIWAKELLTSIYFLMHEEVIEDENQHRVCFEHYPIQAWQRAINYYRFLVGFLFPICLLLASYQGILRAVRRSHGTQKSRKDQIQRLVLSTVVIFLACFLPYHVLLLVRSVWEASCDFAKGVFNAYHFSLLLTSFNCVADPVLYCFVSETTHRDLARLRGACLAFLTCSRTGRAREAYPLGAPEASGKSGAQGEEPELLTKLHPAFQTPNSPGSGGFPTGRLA
Description: Peptide-dependent Ca^2+ mobilization responses were measured in HEK293 stable cell lines (HA-OGR1 (GPR68) and vector pcDNA) ([Saxena et al., 2012]) that were seeded in 96-well plates (1 × 10^5 cells/well) and cultured at 37°C with 5% CO2 to near confluence in DMEM with 10% FBS (Corning). Six hours prior to assay, medium was changed to pH 8.0 or pH 7.4 HAM’s F12 Nutrient Mixture (GIBCO) without FBS and transferred to a 37°C incubator without CO2. One hour prior to stimulation, cells were incubated in pH 8.0 or pH 7.4 HBSS with Ca^2+ and Mg^2+ (GIBCO), supplemented with 15 mM HEPES, 2 μM Fluo-4 AM (Invitrogen) and 1.5 mM probenecid ([…] to prevent Fluo-4 efflux) as described previously ([Pera et al., 2018]). Indicated peptides were pipetted using an automated system and emission signal was recorded at 525 nm after excitation at 485 nm using Flex Station III (Molecular Devices). Ca^2+ mobilization responses were determined by subtracting basal fluorescence from the net peak of agonist-induced fluorescence. Ionomycin (1 μM) was used to calculate the maximum Ca^2+ signal to normalize peptide-mediated responses.

GPR68 = GPR68 (Homo sapiens, UniProt Q15743); assay: Real-time receptor internalization (TR-FRET), concentration-response; assay type: cell-based; parameters: hIL-2Ra signal peptide (N); expressed in transfected cells; settings: GPR68; mean, SEM and n
Chain of GPR68 (Q15743 2-365 limits assumed): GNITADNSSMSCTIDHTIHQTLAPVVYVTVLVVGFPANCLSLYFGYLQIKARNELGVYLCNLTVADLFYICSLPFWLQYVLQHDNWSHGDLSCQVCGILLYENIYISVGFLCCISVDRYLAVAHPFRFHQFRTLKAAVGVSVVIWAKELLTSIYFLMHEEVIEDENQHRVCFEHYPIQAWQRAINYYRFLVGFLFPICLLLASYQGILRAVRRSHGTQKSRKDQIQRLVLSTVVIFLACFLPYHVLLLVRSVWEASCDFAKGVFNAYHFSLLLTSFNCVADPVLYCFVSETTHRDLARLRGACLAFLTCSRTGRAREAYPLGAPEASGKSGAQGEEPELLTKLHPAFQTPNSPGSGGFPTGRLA
Description: 48 hr prior to parallel assaying, SNAP-tagged oGPCR cells were plated (10,000 cells/well) in fibronectin-coated 384-well Epic biosensor microplates (Corning) and poly-D-lysine coated white 384-well plates (for internalization assays). SNAP- GLP-1 receptor was plated alongside orphan receptor cells as an internal assay control for internalization assays. Receptor-expression was induced with 0.1 μg/ml doxycycline.
A TR-FRET real-time internalization assay was used to examine peptide-dependent changes in orphan receptor localization as described previously ([Foster and Bräuner-Osborne, 2018]). Surface-expressed SNAP-tagged receptors were labeled with a cell-impermeable luminescent terbium cryptate (100 nM SNAP Lumi4-Tb; Cisbio, France) for 1 hr at 37°C. Cells were washed to remove excess terbium and incubated with fluorescein-O-acetic acid (100 μM; Sigma Aldrich) for 5 min at 37°C. Peptides were added as for DMR assays, and internalization responses were recorded for 60 min at 37°C using an EnVision 2104 Multimode plate reader (PerkinElmer). 100 nM GLP-1 was used as a positive control for SNAP-GLP1R internalization. Real-time internalization responses were calculated based on TR-FRET (excitation 340 nm; emission 520 nm and 615 nm), and were expressed as the ratio between donor (terbium) and acceptor (fluorescein) emission. For peptide screening analysis (both DMR and internalization assays), we calculated the area under the curve from the real-time traces. As the magnitude of the responses was variable between orphan receptor targets, particularly for the SNAP-tag based internalization assay where the signal is dependent on receptor surface expression, the AUC values were normalized to their respective plate averages and expressed as fold change. Validation experiments for receptor internalization were performed as above. Internalization data was processed in MS-Excel and area under the curve was used to generate concentration-response curves using GraphPad Prism 7.0. Data represent mean ± standard error of the mean (SEM) from at least 3 biologically independent experiments.

BB3 [1] = biological target: T2, BB3 (Homo sapiens, UniProt P32247); assay: β-arrestin recruitment (Tango), validation; assay type: cell-based; settings: for EC50: HTLA cells transiently transfected, overnight stimulation, luciferase, mean ± SEM of 3-4 independent experiments in triplicate, read-out: pEC50, β-arrestin recruitment (Tango), BB3 (converted)
T2 construct: host or cells: HTLA cells (HEK293-derived)
T2 sequence (P32247 1-399): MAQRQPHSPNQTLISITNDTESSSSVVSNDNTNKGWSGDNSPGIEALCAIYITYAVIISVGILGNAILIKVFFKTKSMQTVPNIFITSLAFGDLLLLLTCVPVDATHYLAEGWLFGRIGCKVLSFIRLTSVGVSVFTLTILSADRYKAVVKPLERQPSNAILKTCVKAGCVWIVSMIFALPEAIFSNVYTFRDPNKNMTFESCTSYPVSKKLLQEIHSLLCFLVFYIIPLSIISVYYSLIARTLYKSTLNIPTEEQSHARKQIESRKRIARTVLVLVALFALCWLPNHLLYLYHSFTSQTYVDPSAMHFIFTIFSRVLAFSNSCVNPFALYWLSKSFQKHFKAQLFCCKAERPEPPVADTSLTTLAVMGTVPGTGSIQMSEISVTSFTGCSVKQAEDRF
Description: (§1) The peptide library was additionally screened against 120 GPCR targets in parallel, including all available orphan receptors and 27 known class A peptide receptors using the Tango assay platform ([Kroeze et al., 2015]). Briefly, HTLA cells (a HEK293 cell line stably expressing a tTA-dependent luciferase reporter and a β-arrestin2-TEV fusion gene) were plated 10,000 cells/well in poly-L-lysine–coated clear-bottom white 384-well plates in DMEM supplemented with 10% FBS, 100 U/ml penicillin and 100 μg/ml streptomycin, 2 μg/ml puromycin and 100 μg/ml hygromycin B. 24 hr later, cells were transfected with Tango GPCR constructs using the calcium phosphate method ([Jordan et al., 1996]). The next day, culture medium was changed to DMEM + 1% dFBS and 10 μM peptides were added for overnight stimulation. Bright-Glo solution (Promega) was incubated for 15–20 min at room temperature, and luminescence was counted using a Trilux luminescence counter (Wallac).
(§2) For subsequent peptide validation experiments using Tango assays, HTLA cells were transiently transfected in 10 cm dishes with the receptor of interest using polyethylenimine (PEI) ([Longo et al., 2013]). After 24 hr, 25,000 cells/well were plated in clear bottom, white-walled 384-well plates. Assays were performed as described above, with luminescence measured using an EnSpire 2300 Multimode plate reader (PerkinElmer). Luminescence counts were exported into Excel and were analyzed using GraphPad Prism 7.

human GPCRs = test system: human GPCRs; parameters: method as in Guide to Pharmacology database; settings: max reported value, ref Guide to Pharmacology database, cited from earlier work
Description: Supplement mmc1.xlsx, sheet "HumanGPCRLigands" | column: pKi_value; pKd_value; pEC50_value; pIC50_value

BB3 [2] = biological target: T3, BB3 (Homo sapiens, UniProt P32247); assay: Real-time receptor internalization (TR-FRET), concentration-response; assay type: cell-based; settings: BB3
T3 construct: hIL-2Ra signal peptide (N); expressed in transfected cells
T3 sequence (P32247 2-399 limits assumed): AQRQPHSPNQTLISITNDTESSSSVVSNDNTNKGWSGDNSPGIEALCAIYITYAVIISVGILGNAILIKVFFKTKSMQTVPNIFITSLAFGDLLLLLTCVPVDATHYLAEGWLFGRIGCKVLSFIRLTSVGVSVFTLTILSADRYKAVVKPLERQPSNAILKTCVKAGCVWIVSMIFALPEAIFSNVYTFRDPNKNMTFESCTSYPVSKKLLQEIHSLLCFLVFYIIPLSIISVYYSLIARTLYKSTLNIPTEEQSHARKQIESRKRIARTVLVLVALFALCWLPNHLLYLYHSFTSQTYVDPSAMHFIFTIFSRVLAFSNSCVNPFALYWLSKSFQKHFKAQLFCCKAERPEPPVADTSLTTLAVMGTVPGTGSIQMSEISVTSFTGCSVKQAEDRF

BB3 [3] = biological target: T3, BB3; assay: Dynamic mass redistribution (DMR), concentration-response; assay type: cell-based
BB3 [4] = biological target: T3, BB3; assay: IP1 accumulation (Gq/11), HTRF; assay type: cell-based
[5] = test system: 120 GPCR targets, including all available orphan receptors and 27 known class A peptide receptors; assay: Peptide library screen, β-arrestin recruitment (Tango, fold change, 10 μM); assay type: cell-based, human
Description: as §1

NPY5 = biological target: T4, NPY5 (Homo sapiens, UniProt Q15761); assay: β-arrestin recruitment (Tango), known peptide receptors; assay type: cell-based; settings: NPY5R; mean, n = 3
T4 construct: host or cells: HTLA cells (HEK293-derived)
T4 sequence (Q15761 1-445): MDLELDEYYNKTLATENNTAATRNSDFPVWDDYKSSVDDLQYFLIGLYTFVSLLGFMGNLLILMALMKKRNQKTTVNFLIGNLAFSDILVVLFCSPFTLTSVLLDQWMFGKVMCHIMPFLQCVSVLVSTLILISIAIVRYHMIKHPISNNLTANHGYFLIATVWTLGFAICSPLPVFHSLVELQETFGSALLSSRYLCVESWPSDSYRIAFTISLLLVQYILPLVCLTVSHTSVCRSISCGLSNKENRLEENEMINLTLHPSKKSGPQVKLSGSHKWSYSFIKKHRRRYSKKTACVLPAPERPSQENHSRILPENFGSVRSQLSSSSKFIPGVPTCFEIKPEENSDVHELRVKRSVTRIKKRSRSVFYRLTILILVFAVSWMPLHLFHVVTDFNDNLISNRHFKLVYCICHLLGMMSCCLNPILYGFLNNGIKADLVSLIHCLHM
Description: as §1, §2

[6] = receptor grpr_human (GRPR, P30550)

CC[C@H](C)[C@H](NC(=O)[C@H](CCCNC(=N)N)NC(=O)[C@H](CC(=O)O)NC(=O)[C@H](CCSC)NC(=O)[C@@H]1CCCN1C(=O)[C@@H](NC(=O)CNC(=O)[C@H](Cc1ccccc1)NC(=O)[C@@H](N)CCCNC(=N)N)[C@@H](C)CC)C(=O)NCC(=O)N[C@@H](CCCNC(=N)N)C(=O)N[C@@H](CC(N)=O)C(=O)N[C@@H](CCCNC(=N)N)C(=O)N[C@@H](CC(C)C)C(=O)N[C@@H](CO)C(=O)N[C@@H](CC(N)=O)C(=O)N[C@@H](CO)C(=O)N[C@@H](CCCNC(=N)N)C(=O)NCC(=O)O [128 resynthesized] (H-RFGIPMDRIGRNRLSNSRG-OH)
Emax (HA-OGR1 (GPR68); receptor GPR68, SEM and n (3), read-out: Calcium mobilization assays Emax (% ionomycin)): 34.5%

CC[C@H](C)[C@H](NC(=O)[C@H](CCCNC(=N)N)NC(=O)[C@H](CC(=O)O)NC(=O)[C@H](CCSC)NC(=O)[C@@H]1CCCN1C(=O)[C@@H](NC(=O)CNC(=O)[C@H](Cc1ccccc1)NC(=O)[C@@H](N)CCCNC(=N)N)[C@@H](C)CC)C(=O)NCC(=O)N[C@@H](CCCNC(=N)N)C(=O)N[C@@H](CC(N)=O)C(=O)N[C@@H](CCCNC(=N)N)C(=O)N[C@@H](CC(C)C)C(=O)N[C@@H](CO)C(=O)N[C@@H](CC(N)=O)C(=O)N[C@@H](CO)C(=O)N[C@@H](CCCNC(=N)N)C(=O)NCC(=O)O [Osteocrin_(33-50)] (H-RFGIPMDRIGRNRLSNSRG-OH)
Emax (HA-OGR1 (GPR68); GPR68, data from resynthesized peptide, SEM and n, read-out: Emax, Ca2+ mobilization (% iono)): 34.5%
pEC50, Internalization (AUC) (GPR68): Response >1uM

CSCC[C@H](NC(=O)[C@H](Cc1ccccc1)NC(=O)[C@H](Cc1c[nH]cn1)NC(=O)CNC(=O)[C@@H](NC(=O)[C@H](C)NC(=O)[C@H](Cc1c[nH]c2ccccc12)NC(=O)[C@H](CC(C)C)NC(=O)[C@H](CC(N)=O)NC(=O)CN)[C@@H](C)O)C(N)=O [Peptide 59, Neuromedin B, reference compound]
Emax, Tango (fold over basal) (BB3 [1]; BB3, mean, SEM and n): 5.0 fold over basal
pEC50, Tango (fold over basal) (BB3 [1]; BB3, mean, SEM and n): 5.67
EC50 (BB3 [1]): 2000 nM
pIC50_value (human GPCRs; [6]): 7.5
pKi_value (human GPCRs; [6]): 8.1
pKi_value (human GPCRs; receptor nmbr_human (NMBR, P28336)): 10.3
Emax, Internalization (AUC) (BB3 [2]; mean, SEM and n): 26.4
EC50 (BB3 [2]; mean, SEM and n, read-out: pEC50, Internalization (AUC) (converted)): 1950 nM
EC50 (BB3 [3]): 37.2 nM
Emax, DMR (peak) (BB3 [3]; BB3, mean, SEM and n): 183.2
Emax, IP1 (BB3 [4]; BB3, mean, SEM and n): 81.0 nM
EC50 (BB3 [4]; pEC50, IP1 accumulation (Gq/11), BB3, HTRF IP-One, 30 min, 37°C, mean ± SEM of 3-4 independent experiments in triplicate, peptide 158 n = 2): 407 nM

CSCC[C@H](NC(=O)[C@H](CC(C)C)NC(=O)[C@H](Cc1c[nH]cn1)NC(=O)CNC(=O)[C@@H](NC(=O)[C@H](C)NC(=O)[C@H](Cc1c[nH]c2ccccc12)NC(=O)[C@H](Cc1c[nH]cn1)NC(=O)[C@H](CC(N)=O)NC(=O)CNC(=O)[C@H](CCCNC(=N)N)NC(=O)[C@@H]1CCCN1C(=O)[C@H](Cc1ccc(O)cc1)NC(=O)[C@H](CCSC)NC(=O)[C@H](CCCCN)NC(=O)[C@@H](NC(=O)[C@H](CC(C)C)NC(=O)[C@@H](NC(=O)[C@@H](NC(=O)CNC(=O)CNC(=O)CNC(=O)[C@H](C)NC(=O)[C@@H]1CCCN1C(=O)[C@H](CC(C)C)NC(=O)[C@@H]1CCCN1C(=O)[C@@H](N)C(C)C)[C@@H](C)O)C(C)C)[C@@H](C)O)C(C)C)C(N)=O [Peptide 167, gastrin-releasing peptide, reference compound]
EC50 (BB3 [1]): > 10000 nM
pIC50_value (human GPCRs; [6]): 10
pKi_value (human GPCRs; [6]): 8.2
EC50 (BB3 [2]; pEC50, internalization): > 10000 nM

SRTHRHSMEIRTPDINPAWYASRGIRPVGRF [Peptide 183]
Active at: (activity in b-arrestin recruitment assays) ([5]; Tango, receptor(s) at which the known library peptide was active, among its known GPCR target(s), validated pairings): PrRP
Confirmation of known target in Tango ([5]; repeat hitters of the peptide library screen, the value names the known receptor(s) confirmed in the β-arrestin recruitment (Tango) screen): PrRP
Emax, Tango (fold over basal) (NPY5): 6.6 fold over basal
pEC50, Tango (fold over basal) (NPY5): 5.60
